The values that follow come from patent US11152578B2, “Sulfonium salts of DNTT and related compounds as soluble photocleavable precursors for organic semiconductors for use in organic field-effect transistors” (Clap Co., Ltd., priority 2017, dated 2021).

Like-named read-outs stand apart in the source and are kept apart here.

Data set [1] in a line: Solubility in various solvents at 25° C. The data set is classed as physicochemical. To be noted: organic solvent or mixture. As to the method: The solubility of the compound 1Aa at 25° C. was compared to the solubility of compound 2Aa in various solvents.
The conditions of data set [2]: background statement, no solvent given; cited from earlier work.
The mark [3] stands for this setting: CH3CN, read-out: solubility in CH3CN.
The mark [4] stands for this setting: CHCl3, read-out: solubility in CHCl3.
Setting [5] is: DMF, read-out: solubility in DMF.

On to `CCC(C)(C)c1ccc(-[s+]2c3cc4ccccc4cc3c3sc4cc5ccccc5cc4c32)cc1.F[B-](F)(F)F` (stereo not shown) [Compound 1Aa], for which the solubility in data set [1] (setting [3]) is 5000 µg/mL; in data set [1] (setting [4]), 5000 µg/mL; in data set [1] (setting [5]) it was 8000 µg/mL.

For the compound `c1ccc2cc3c(cc2c1)sc1c2cc4ccccc4cc2sc31` [Compound 2Aa, dinaphtho[2,3-b:2′,3′-f]thieno[3,2-b]thiophene], the “solubility (in words)” value in data set [2] was “low solubility”. For the same compound, the solubility in data set [1] (setting [3]), in data set [1] (setting [4]) and in data set [1] (setting [5]) was < 1000 µg/mL in each case.

The solubility is how much of the substance goes into solution per volume.
